# US20030061759A1, “Method for expelling harmful insects by volatilization of a chemical” (FUMAKILLA LIMITED, priority 2000, published 2003)
# Where two headings read alike, the source gives them in different places.
# Columns and labels:
# [1] = tested on: female adult stegomyia mosquitoes (Aedes albopictus); assay: Comparative debugging efficaciousness tests: bloodsucking prevention on rats, liquid type electric mosquito repellent utensil; format: in vivo; conditions: for efficacy of preventing mosquitoes from bloodsucking rats compared with transfluthrin: comparison in words; for Potency Ratio (Etoc 100), of IC50 Value / Potency Ratio (Etoc 100), of IC90 Value: relative to d,d-T80-prallethrin (Etoc) = 100; for IC50 Value (amount of volatilization at a 50% rate of bloodsucking prevention) / IC90 Value (amount of volatilization at a 90% rate of bloodsucking prevention): 13.2 m^2 room, 32° C., 30 min pre-fumigation, 2 hours after release, rats
# Protocol: First, debugging efficaciousness tests were performed. For the criterion of judgment to compare degrees of efficaciousness, the effect of bloodsucking by mosquitoes of rats was adopted. Based on this, the following efficaciousness tests were carried out.
# Comparative Debugging Efficaciousness Tests
# Sample chemicals that were used were as follows: d,d-T80-prallethrin, transfluthrin, d1,d-T80-allethrin, d-T80-furamethrin, terallethrin and empenthrin; and pyrethroid technical products (sample chemicals) A, B, C, D, E, F, G and H.
# Sample insects that were used were as follows: female adult stegomyia mosquitoes (Aedes albopictus) of Fumakilla (spelled phonetically) series 6th to 9th after emergence.
# Sample chemical volatilizing form: A liquid type electric mosquito repellent utensil, a liquid agent (referred to below as “sample liquid”), obtained by diluting each of the sample chemicals with a solvent in a varying concentration, was allowed to volatilize.
# Method used for tests: A test was conducted in two 8 straw mat (13.2 m^2) rooms, one as a treatment zone and the other as a non-treatment zone, both in a no-wind state and at a constant room temperature of 32° C.
# In the treatment zone, three cages each with a rat confined therein were placed equidistantly spaced apart (about 20 cm) in the center of the test room. The mosquito repellent utensil placed on the floor surface of the center of the test room was preliminarily electrically energized for operation, and to thermally volatilize each of the sample liquids and fumigate the room therewith for a period of 30 minutes, and then about 100 (one hundred) of sample mosquitoes were released into the test room. After two hours following the release of the mosquitoes, all these sample mosquitoes were knocked-down by using a mosquito repellent mat, and the number of the mosquitoes which had bloodsucking was counted to find the proportion of bloodsucking.
# In the non-treatment zone, also, after the 2 hours of bloodsucking, the proportion of bloodsucking was found.
# A rate of bloodsucking prevention was derived from the proportions of bloodsucking in the treatment and non-treatment rooms as expressed by the following equation:
# Rate of bloodsucking prevention =[(Total bloodsucking proportion in the non-treatment zone−Total bloodsucking proportion in the treatment zone)÷Total bloodsucking proportion in the non-treatment zone]×100
# Also, on the basis of these amounts of volatilization and rates of bloodsucking prevention, an amount of volatilization at a 50% rate of bloodsucking prevention (IC50 value) and an amount of volatilization at a 90% rate of bloodsucking prevention (IC90 value) are found and shown in Table 1 below.
# [2] = Comparative vapor pressure tests by gas chromatography; format: physicochemical
# Protocol: 2. Comparative Vapor Pressure Tests
# Next, by using gas chromatography, the various chemicals including sample chemicals A, B and C screened out by the foregoing comparative debugging efficaciousness tests were compared with d,d-T80-prallethrin (Etoc) as regards to their vapor pressures.
# The gas chromatography test included as its temperature conditions an initial temperature of 60° C., and a temperature rise of 5° C. per minute up to a maximum temperature of 250° C., which was held for a period of 5 minutes, whereupon the process ended.
# The filler used was made up of methyl silicon polymer, which is non-polar.
# It should also be noted that as an internal standard substance use was made of sebacic acid-n-butyl and which was added to confirm that there was no deviation in retention time from one test to another.
# Retention times for the various chemicals are listed in Table 2 in the order of shorter to longer.
# [3] = tested on: female adult common house mosquitoes (Culex pipiens pallens); assay: Example 1: spontaneous volatilization efficaciousness test in 33 m^3 room (knockdown, KT50); format: in vivo
# Text: Using sample chemicals A, B and C screened out by the preliminary tests, the efficaciousness of each of them when allowed to volatilize spontaneously was compared with that of transfluthrin when allowed to volatilize spontaneously.
# Sample Preparations (Chemicals and Their Carriers According to the Present Invention):
# A non-woven polypropylene fabric (made by Idemitsu Petroleum Chemicals Co., Ltd., product name RW2100, density 100 grams/m^2) of 50 cm×40 cm was coated with a hexane solution of 100 milliliter containing 1% (W/V) sample chemicals A, B, C and left to dry for 24 hours (effective amount of chemical: 1000 milligrams).
# Comparative Preparation (Chemical and its Carrier):
# A non-woven polypropylene fabric (made by Idemitsu Petroleum Chemicals Co., Ltd., product name RW2100, density 100 grams/m^2) of 50 cm×40 cm was coated with a hexane solution of 100 milliliter containing 1% (W/V) of transfluthrin and left to dry for 24 hours (effective amount of chemical: 1000 milligrams).
# Testing Method: Efficaciousness Tests in an 8 Straw Mat room with a volume of 33 m^3
# In the center of the test room with a volume of 33 m^3 (3.65 m×3.65 m×2.5 m high), each chemical carrier as prepared as above was placed as hung on a hook suspended in the center of the room to let the corresponding chemical volatilize spontaneously for a period of 3 hours. Thereafter, a triangular net casing (20 cm×20 cm×16.4 cm high) of 16 mesh nylon net containing 10 (ten) female adult common house mosquitoes (Culex pipiens pallens) was placed as hung in an area at each of the four corners (spaced from the wall surfaces at a distance of 90 cm) at a height of 150 cm from the room floor and was exposed to the chemical atmosphere.
# A test was also conducted likewise for the comparative carrier.
# After the tests ended, the samples chemicals were let to volatilize spontaneously in the room having a constant temperature of 30° C. The same test was repeated at given intervals and efficaciousness was then examined each time.
# [4] = 60° C. initial, 5° C. per minute up to 250° C., non-polar methyl silicon polymer filler
compound,measurement,setting,value
C#CC(OC(=O)C1C(C=C(C)C)C1(C)C)/C(C)=C/CC (stereo not drawn) [Empenthrin],efficacy of preventing mosquitoes from bloodsucking rats compared with transfluthrin,[1],lower effects of preventing mosquitoes from bloodsucking rats than transfluthrin
same,"Potency Ratio (Etoc 100), of IC50 Value",[1],0.7
same,"Potency Ratio (Etoc 100), of IC90 Value",[1],1.2
same,"Retention Time (gas chromatography, as comparison of vapor pressure)",[2]; [4],20.1 min
"CC(C)=CC1C(C(=O)OCc2cccc(Oc3ccccc3)c2)C1(C)C (stereo not drawn) [Phenothorin, reference compound]","Retention Time (gas chromatography, as comparison of vapor pressure)",[2],33.7 min
"CC=CC1C(C(=O)OCc2c(F)c(F)c(COC)c(F)c2F)C1(C)C (stereo not drawn) [Sample Chemical A, 2,3,5,6-tetrafluoro-4-methoxymethylbenzyl 3-(1-propenyl)-2,2-dimethylcyclopropanecarboxylate]",potency and retention of potency compared with transfluthrin,[3]; comparison in words,higher in potency and also longer in retention time than transfluthrin
same,KT50,[3]; elapsed time 0 hr,6.53 min
same,KT50,[3]; elapsed time 168 hr,4.52 min
same,KT50,[3]; elapsed time 336 hr,5.38 min
same,KT50,[3]; elapsed time 504 hr,6.28 min
same,KT50,[3]; elapsed time 672 hr,7.25 min
same,KT50,[3]; elapsed time 864 hr,9.60 min
same,KT50,[3]; elapsed time 1056 hr,8.50 min
same,KT50,[3]; elapsed time 1200 hr,8.80 min
same,KT50,[3]; elapsed time 1344 hr,9.70 min
same,KT50,[3]; elapsed time 1536 hr,8.97 min
same,KT50,[3]; elapsed time 1680 hr,11.60 min
same,KT50,[3]; elapsed time 1848 hr,12.50 min
same,KT50,[3]; elapsed time 2016 hr,11.50 min
same,KT50,[3]; elapsed time 2208 hr,13.60 min
same,KT50,[3]; elapsed time 2352 hr,16.80 min
same,KT50,[3]; elapsed time 2520 hr,17.20 min
same,KT50,[3]; elapsed time 2688 hr,18.60 min
same,KT50,[3]; elapsed time 2856 hr,17.70 min
same,KT50,[3]; elapsed time 3024 hr,24.60 min
same,KT50,[3]; elapsed time 3192 hr,27.80 min
same,KT50,[3]; elapsed time 3360 hr,31.60 min
same,efficacy of preventing mosquitoes from bloodsucking rats compared with transfluthrin,[1],more efficacious than transfluthrin
same,"Potency Ratio (Etoc 100), of IC50 Value",[1],197.1
same,"Potency Ratio (Etoc 100), of IC90 Value",[1],496.8
same,"Retention Time (gas chromatography, as comparison of vapor pressure)",[2]; [4],25.1 min
same,"vapor pressure compared with transfluthrin and d,d-T80-prallethrin",[2]; from GC retention times,"lower than transfluthrin, but higher than d,d-T80-prallethrin"
"COc1c(F)c(F)c(COC(=O)C2C(C=C(Cl)Cl)C2(C)C)c(F)c1F (stereo not drawn) [Sample Chemical D, 2,3,5,6-tetrafluoro-4-methoxybenzyl 3-(2,2-dichlorovinyl)-2,2-dimethylcyclopropanecarboxylate]","Potency Ratio (Etoc 100), of IC50 Value",[1],17.5
same,"Potency Ratio (Etoc 100), of IC90 Value",[1],21.3
"COCc1c(F)c(F)c(COC(=O)C2C(C=C(C)C)C2(C)C)c(F)c1F (stereo not drawn) [Sample Chemical E, 2,3,5,6-tetrafluoro-4-methoxymethylbenzyl 3-(2-methyl-1-propenyl)-2,2-dimethylcyclopropanecarboxylate]","Potency Ratio (Etoc 100), of IC50 Value",[1],13.7
same,"Potency Ratio (Etoc 100), of IC90 Value",[1],22.4
"CC(C)=CC1C(C(=O)OCc2c(F)c(F)c(C)c(F)c2F)C1(C)C (stereo not drawn) [Sample Chemical F, 2,3,5,6-tetrafluoro-4-methylbenzyl 3-(2-methyl-1-propenyl)-2,2-dimethylcyclopropanecarboxylate]","Potency Ratio (Etoc 100), of IC50 Value",[1],6.6
same,"Potency Ratio (Etoc 100), of IC90 Value",[1],5.4
"CC=CC1C(C(=O)OCc2c(F)c(F)c(C)c(F)c2F)C1(C)C (stereo not drawn) [Sample Chemical G, 2,3,5,6-tetrafluoro-4-methylbenzyl 3-(1-propenyl)-2,2-dimethylcyclopropanecarboxylate]","Potency Ratio (Etoc 100), of IC50 Value",[1],2.8
same,"Potency Ratio (Etoc 100), of IC90 Value",[1],4.3
"C#CC(OC(=O)C1C(C=C(F)Cl)C1(C)C)C(C)=CCC (stereo not drawn) [Sample Chemical H, 1-ethynyl-2-methyl-2-pentenyl 3-(2-chloro-2-fluorovinyl)-2,2-dimethylcyclopropanecarboxylate]","Potency Ratio (Etoc 100), of IC50 Value",[1],2.0
same,"Potency Ratio (Etoc 100), of IC90 Value",[1],3.1
C=CCC1=C(C)C(OC(=O)C2C(C)(C)C2(C)C)CC1=O (stereo not drawn) [Terallethrin],IC50 Value (amount of volatilization at a 50% rate of bloodsucking prevention),[1],0.3650 mg/h
same,IC90 Value (amount of volatilization at a 90% rate of bloodsucking prevention),[1],1.028 mg/h
same,efficacy of preventing mosquitoes from bloodsucking rats compared with transfluthrin,[1],lower effects of preventing mosquitoes from bloodsucking rats than transfluthrin
same,"Potency Ratio (Etoc 100), of IC50 Value",[1],2.2
same,"Potency Ratio (Etoc 100), of IC90 Value",[1],3.8
same,"Retention Time (gas chromatography, as comparison of vapor pressure)",[2],23.3 min
"C=CCC1=C(C)C(OC(=O)C2C(C=C(C)C)C2(C)C)CC1=O (stereo not drawn) [d1,d-T80-allethrin]",efficacy of preventing mosquitoes from bloodsucking rats compared with transfluthrin,[1],lower effects of preventing mosquitoes from bloodsucking rats than transfluthrin
same,"Potency Ratio (Etoc 100), of IC50 Value",[1],12.9
same,"Potency Ratio (Etoc 100), of IC90 Value",[1],9.5
same,"Retention Time (gas chromatography, as comparison of vapor pressure)",[2],26.6 min
"C#CCC1=C(C)C(OC(=O)C2C(C=C(C)C)C2(C)C)CC1=O (stereo not drawn) [d,d-T80-prallethrin]",IC50 Value (amount of volatilization at a 50% rate of bloodsucking prevention),[1],0.0081 mg/h
same,IC90 Value (amount of volatilization at a 90% rate of bloodsucking prevention),[1],0.039 mg/h
same,efficacy of preventing mosquitoes from bloodsucking rats compared with transfluthrin,[1],more efficacious than transfluthrin
same,"Potency Ratio (Etoc 100), of IC50 Value",[1],100.0
same,"Potency Ratio (Etoc 100), of IC90 Value",[1],100.0
same,"Retention Time (gas chromatography, as comparison of vapor pressure)",[2]; [4],27.1 min
C#CCc1ccc(COC(=O)C2C(C=C(C)C)C2(C)C)o1 (stereo not drawn) [d-T80-furamethrin],IC50 Value (amount of volatilization at a 50% rate of bloodsucking prevention),[1],0.1170 mg/h
same,IC90 Value (amount of volatilization at a 90% rate of bloodsucking prevention),[1],0.270 mg/h
same,efficacy of preventing mosquitoes from bloodsucking rats compared with transfluthrin,[1],lower effects of preventing mosquitoes from bloodsucking rats than transfluthrin
same,"Potency Ratio (Etoc 100), of IC50 Value",[1],6.9
same,"Potency Ratio (Etoc 100), of IC90 Value",[1],14.4
